From the NIST ThermoML archive (doi:10.1016/j.jct.2012.03.031)
Numbers after ± are expanded uncertainties.

Assay: molar heat capacity at constant pressure
Conditions: 101.33 kPa

CCCCc1ccc(C(=O)Oc2ccc(C#N)c(F)c2)cc1 [4-cyano-3-fluorophenyl 4-butylbenzoate]
Conditions	molar heat capacity at constant pressure [J/K/mol]
4.918 K, Crystal 1, Small (less than 1 g) adiabatic calorimetry	1.032 ± 0.14
5 K, Crystal 1, Vacuum adiabatic calorimetry	1.08 ± 0.22
5 K, Crystal 2, Vacuum adiabatic calorimetry	1.44 ± 0.26
5.052 K, Crystal 2, Small (less than 1 g) adiabatic calorimetry	1.482 ± 0.18
5.07 K, Crystal 1, Small (less than 1 g) adiabatic calorimetry	1.127 ± 0.14
5.575 K, Crystal 1, Small (less than 1 g) adiabatic calorimetry	1.448 ± 0.16
5.722 K, Crystal 2, Small (less than 1 g) adiabatic calorimetry	2.06 ± 0.2
5.747 K, Crystal 1, Small (less than 1 g) adiabatic calorimetry	1.591 ± 0.16
6.284 K, Crystal 1, Small (less than 1 g) adiabatic calorimetry	2.011 ± 0.18
6.538 K, Crystal 2, Small (less than 1 g) adiabatic calorimetry	2.901 ± 0.23
6.573 K, Crystal 1, Small (less than 1 g) adiabatic calorimetry	2.293 ± 0.19
7.108 K, Crystal 1, Small (less than 1 g) adiabatic calorimetry	2.802 ± 0.22
7.413 K, Crystal 2, Small (less than 1 g) adiabatic calorimetry	3.946 ± 0.27
7.456 K, Crystal 1, Small (less than 1 g) adiabatic calorimetry	3.2 ± 0.23
8.006 K, Crystal 1, Small (less than 1 g) adiabatic calorimetry	3.815 ± 0.25
8.284 K, Crystal 2, Small (less than 1 g) adiabatic calorimetry	5.139 ± 0.3
8.384 K, Crystal 1, Small (less than 1 g) adiabatic calorimetry	4.319 ± 0.27
8.948 K, Crystal 1, Small (less than 1 g) adiabatic calorimetry	5.034 ± 0.28
9.21 K, Crystal 2, Small (less than 1 g) adiabatic calorimetry	6.549 ± 0.34
9.353 K, Crystal 1, Small (less than 1 g) adiabatic calorimetry	5.638 ± 0.3
9.931 K, Crystal 1, Small (less than 1 g) adiabatic calorimetry	6.451 ± 0.32
10 K, Crystal 1, Vacuum adiabatic calorimetry	6.56 ± 0.34
10 K, Crystal 2, Vacuum adiabatic calorimetry	7.87 ± 0.38
10.23 K, Crystal 2, Small (less than 1 g) adiabatic calorimetry	8.254 ± 0.37
10.31 K, Crystal 1, Small (less than 1 g) adiabatic calorimetry	7.064 ± 0.33
10.88 K, Crystal 1, Small (less than 1 g) adiabatic calorimetry	7.93 ± 0.34
11.24 K, Crystal 2, Small (less than 1 g) adiabatic calorimetry	10.07 ± 0.4
11.26 K, Crystal 1, Small (less than 1 g) adiabatic calorimetry	8.608 ± 0.35
11.81 K, Crystal 1, Small (less than 1 g) adiabatic calorimetry	9.492 ± 0.36
12.23 K, Crystal 1, Small (less than 1 g) adiabatic calorimetry	10.25 ± 0.38
12.28 K, Crystal 2, Small (less than 1 g) adiabatic calorimetry	12.04 ± 0.42
12.81 K, Crystal 1, Small (less than 1 g) adiabatic calorimetry	11.22 ± 0.39
13.24 K, Crystal 1, Small (less than 1 g) adiabatic calorimetry	12.07 ± 0.4
13.39 K, Crystal 2, Small (less than 1 g) adiabatic calorimetry	14.28 ± 0.45
13.89 K, Crystal 1, Small (less than 1 g) adiabatic calorimetry	13.26 ± 0.41
14.32 K, Crystal 1, Small (less than 1 g) adiabatic calorimetry	14.11 ± 0.41
14.71 K, Crystal 2, Small (less than 1 g) adiabatic calorimetry	17 ± 0.48
15.07 K, Crystal 1, Small (less than 1 g) adiabatic calorimetry	15.49 ± 0.44
15.47 K, Crystal 1, Small (less than 1 g) adiabatic calorimetry	16.32 ± 0.44
16.2 K, Crystal 2, Small (less than 1 g) adiabatic calorimetry	20.27 ± 0.5
16.43 K, Crystal 1, Small (less than 1 g) adiabatic calorimetry	18.21 ± 0.46
16.76 K, Crystal 1, Small (less than 1 g) adiabatic calorimetry	18.95 ± 0.47
17.73 K, Crystal 2, Small (less than 1 g) adiabatic calorimetry	23.69 ± 0.53
18.05 K, Crystal 1, Small (less than 1 g) adiabatic calorimetry	21.6 ± 0.49
18.4 K, Crystal 1, Small (less than 1 g) adiabatic calorimetry	22.4 ± 0.49
19.39 K, Crystal 2, Small (less than 1 g) adiabatic calorimetry	27.53 ± 0.55
19.84 K, Crystal 1, Small (less than 1 g) adiabatic calorimetry	25.4 ± 0.51
20 K, Crystal 1, Vacuum adiabatic calorimetry	25.75 ± 0.45
20 K, Crystal 2, Vacuum adiabatic calorimetry	28.93 ± 0.49
20.07 K, Crystal 1, Small (less than 1 g) adiabatic calorimetry	25.94 ± 0.51
21.11 K, Crystal 2, Small (less than 1 g) adiabatic calorimetry	31.48 ± 0.57
21.53 K, Crystal 1, Small (less than 1 g) adiabatic calorimetry	29.12 ± 0.53
21.58 K, Crystal 1, Small (less than 1 g) adiabatic calorimetry	29.19 ± 0.53
22.83 K, Crystal 2, Small (less than 1 g) adiabatic calorimetry	35.46 ± 0.58
23.05 K, Crystal 1, Small (less than 1 g) adiabatic calorimetry	32.44 ± 0.54
23.28 K, Crystal 1, Small (less than 1 g) adiabatic calorimetry	32.87 ± 0.55
24.53 K, Crystal 2, Small (less than 1 g) adiabatic calorimetry	39.3 ± 0.59
24.67 K, Crystal 1, Small (less than 1 g) adiabatic calorimetry	35.93 ± 0.56
24.93 K, Crystal 1, Small (less than 1 g) adiabatic calorimetry	36.45 ± 0.56
26.2 K, Crystal 2, Small (less than 1 g) adiabatic calorimetry	43.02 ± 0.61
26.34 K, Crystal 1, Small (less than 1 g) adiabatic calorimetry	39.52 ± 0.58
26.69 K, Crystal 1, Small (less than 1 g) adiabatic calorimetry	40.25 ± 0.58
27.89 K, Crystal 2, Small (less than 1 g) adiabatic calorimetry	47.05 ± 0.63
27.96 K, Crystal 1, Small (less than 1 g) adiabatic calorimetry	43.27 ± 0.6
28.5 K, Crystal 1, Small (less than 1 g) adiabatic calorimetry	44.43 ± 0.6
29.49 K, Crystal 1, Small (less than 1 g) adiabatic calorimetry	46.73 ± 0.6
29.58 K, Crystal 2, Small (less than 1 g) adiabatic calorimetry	50.91 ± 0.62
30 K, Crystal 1, Vacuum adiabatic calorimetry	47.75 ± 0.52
30 K, Crystal 2, Vacuum adiabatic calorimetry	51.82 ± 0.55
30.38 K, Crystal 1, Small (less than 1 g) adiabatic calorimetry	48.59 ± 0.57
30.97 K, Crystal 1, Small (less than 1 g) adiabatic calorimetry	49.89 ± 0.58
31.27 K, Crystal 2, Small (less than 1 g) adiabatic calorimetry	54.58 ± 0.6
32.25 K, Crystal 1, Small (less than 1 g) adiabatic calorimetry	52.59 ± 0.58
32.3 K, Crystal 1, Small (less than 1 g) adiabatic calorimetry	52.61 ± 0.58
32.73 K, Crystal 2, Small (less than 1 g) adiabatic calorimetry	57.73 ± 0.62
33.42 K, Crystal 1, Small (less than 1 g) adiabatic calorimetry	55.02 ± 0.6
34.08 K, Crystal 2, Small (less than 1 g) adiabatic calorimetry	60.65 ± 0.63
34.18 K, Crystal 1, Small (less than 1 g) adiabatic calorimetry	56.62 ± 0.61
34.66 K, Crystal 1, Small (less than 1 g) adiabatic calorimetry	57.7 ± 0.61
35.58 K, Crystal 2, Small (less than 1 g) adiabatic calorimetry	63.81 ± 0.64
35.96 K, Crystal 1, Small (less than 1 g) adiabatic calorimetry	60.42 ± 0.62
36.15 K, Crystal 1, Small (less than 1 g) adiabatic calorimetry	60.78 ± 0.62
37.11 K, Crystal 2, Small (less than 1 g) adiabatic calorimetry	67 ± 0.65
37.29 K, Crystal 1, Small (less than 1 g) adiabatic calorimetry	63.17 ± 0.63
38.18 K, Crystal 1, Small (less than 1 g) adiabatic calorimetry	64.88 ± 0.63
38.66 K, Crystal 1, Small (less than 1 g) adiabatic calorimetry	65.91 ± 0.64
38.66 K, Crystal 2, Small (less than 1 g) adiabatic calorimetry	70.19 ± 0.66
40 K, Crystal 1, Vacuum adiabatic calorimetry	68.45 ± 0.58
40 K, Crystal 2, Vacuum adiabatic calorimetry	72.67 ± 0.6
40.05 K, Crystal 1, Small (less than 1 g) adiabatic calorimetry	68.62 ± 0.65
40.1 K, Crystal 2, Small (less than 1 g) adiabatic calorimetry	72.86 ± 0.66
40.24 K, Crystal 1, Small (less than 1 g) adiabatic calorimetry	68.92 ± 0.65
41.44 K, Crystal 2, Small (less than 1 g) adiabatic calorimetry	75.41 ± 0.68
41.46 K, Crystal 1, Small (less than 1 g) adiabatic calorimetry	71.35 ± 0.66
42.21 K, Crystal 1, Small (less than 1 g) adiabatic calorimetry	72.67 ± 0.67
42.84 K, Crystal 2, Small (less than 1 g) adiabatic calorimetry	78.05 ± 0.7
42.89 K, Crystal 1, Small (less than 1 g) adiabatic calorimetry	74.07 ± 0.67
44.12 K, Crystal 1, Small (less than 1 g) adiabatic calorimetry	76.27 ± 0.68
44.27 K, Crystal 2, Small (less than 1 g) adiabatic calorimetry	80.76 ± 0.71
44.33 K, Crystal 1, Small (less than 1 g) adiabatic calorimetry	76.76 ± 0.68
45.76 K, Crystal 2, Small (less than 1 g) adiabatic calorimetry	83.54 ± 0.72
45.77 K, Crystal 1, Small (less than 1 g) adiabatic calorimetry	79.44 ± 0.7
46.11 K, Crystal 1, Small (less than 1 g) adiabatic calorimetry	79.97 ± 0.7
47.22 K, Crystal 1, Small (less than 1 g) adiabatic calorimetry	82.08 ± 0.71
47.31 K, Crystal 2, Small (less than 1 g) adiabatic calorimetry	86.36 ± 0.73
48.17 K, Crystal 1, Small (less than 1 g) adiabatic calorimetry	83.7 ± 0.72
48.67 K, Crystal 1, Small (less than 1 g) adiabatic calorimetry	84.74 ± 0.72
48.88 K, Crystal 2, Small (less than 1 g) adiabatic calorimetry	89.17 ± 0.75
50 K, Crystal 1, Vacuum adiabatic calorimetry	86.93 ± 0.64
50 K, Crystal 2, Vacuum adiabatic calorimetry	91.14 ± 0.67
50.13 K, Crystal 1, Small (less than 1 g) adiabatic calorimetry	87.32 ± 0.73
50.27 K, Crystal 1, Small (less than 1 g) adiabatic calorimetry	87.41 ± 0.73
50.47 K, Crystal 2, Small (less than 1 g) adiabatic calorimetry	91.97 ± 0.76
51.6 K, Crystal 1, Small (less than 1 g) adiabatic calorimetry	89.81 ± 0.75
52.07 K, Crystal 2, Small (less than 1 g) adiabatic calorimetry	94.74 ± 0.78
52.41 K, Crystal 1, Small (less than 1 g) adiabatic calorimetry	91.07 ± 0.75
53.06 K, Crystal 1, Small (less than 1 g) adiabatic calorimetry	92.27 ± 0.76
53.69 K, Crystal 2, Small (less than 1 g) adiabatic calorimetry	97.39 ± 0.79
54.53 K, Crystal 1, Small (less than 1 g) adiabatic calorimetry	94.7 ± 0.77
54.59 K, Crystal 1, Small (less than 1 g) adiabatic calorimetry	94.68 ± 0.77
55.31 K, Crystal 2, Small (less than 1 g) adiabatic calorimetry	100.11 ± 0.81
56.01 K, Crystal 1, Small (less than 1 g) adiabatic calorimetry	97.07 ± 0.78
56.79 K, Crystal 1, Small (less than 1 g) adiabatic calorimetry	98.21 ± 0.79
56.94 K, Crystal 2, Small (less than 1 g) adiabatic calorimetry	102.73 ± 0.82
57.48 K, Crystal 1, Small (less than 1 g) adiabatic calorimetry	99.44 ± 0.8
58.59 K, Crystal 2, Small (less than 1 g) adiabatic calorimetry	105.37 ± 0.84
58.96 K, Crystal 1, Small (less than 1 g) adiabatic calorimetry	101.75 ± 0.81
58.97 K, Crystal 1, Small (less than 1 g) adiabatic calorimetry	101.63 ± 0.81
60 K, Crystal 1, Vacuum adiabatic calorimetry	103.22 ± 0.71
60 K, Crystal 2, Vacuum adiabatic calorimetry	107.66 ± 0.74
60.24 K, Crystal 2, Small (less than 1 g) adiabatic calorimetry	108.04 ± 0.85
60.44 K, Crystal 1, Small (less than 1 g) adiabatic calorimetry	104.07 ± 0.82
61.09 K, Crystal 1, Small (less than 1 g) adiabatic calorimetry	104.91 ± 0.83
61.9 K, Crystal 2, Small (less than 1 g) adiabatic calorimetry	110.62 ± 0.86
